Values of other authors in patent US20230346708A1, “STABLE FORMULATIONS OF ANTI-CANCER PEPTIDES” (Oncolyze, Inc., priority 2020, published 2023).

System: cancer cells
Details: cancer cells vs normal cells; general statement, no data shown

Question: Which Tumor cell necrosis does the source give for “ETFSDLWKLLKKWKMRRNQFWVKVQRG [PNC-28, p53 aa17-26-MRP anti-cancer peptide]” here?
Answer: Its Tumor cell necrosis is “induce tumor cell necrosis of cancer cells, but not normal cells”.
